In US20240116985A1, “STAPLED PEPTIDES AND METHODS THEREOF” (priority 2020, published 2024):
Where two headings read alike, the source gives them in different places.

Experiments:
[1] = biological target: T1, full-length beta-Catenin (Uniprot ID P35222) (Homo sapiens, UniProt P35222); assay: Fluorescence polarization IC50 (beta-catenin / 5FAM-TCF4 10-53 competition); type: binding
T1 construct: 10 nM full-length beta-Catenin (Uniprot ID P35222)
T1 sequence (P35222 1-781): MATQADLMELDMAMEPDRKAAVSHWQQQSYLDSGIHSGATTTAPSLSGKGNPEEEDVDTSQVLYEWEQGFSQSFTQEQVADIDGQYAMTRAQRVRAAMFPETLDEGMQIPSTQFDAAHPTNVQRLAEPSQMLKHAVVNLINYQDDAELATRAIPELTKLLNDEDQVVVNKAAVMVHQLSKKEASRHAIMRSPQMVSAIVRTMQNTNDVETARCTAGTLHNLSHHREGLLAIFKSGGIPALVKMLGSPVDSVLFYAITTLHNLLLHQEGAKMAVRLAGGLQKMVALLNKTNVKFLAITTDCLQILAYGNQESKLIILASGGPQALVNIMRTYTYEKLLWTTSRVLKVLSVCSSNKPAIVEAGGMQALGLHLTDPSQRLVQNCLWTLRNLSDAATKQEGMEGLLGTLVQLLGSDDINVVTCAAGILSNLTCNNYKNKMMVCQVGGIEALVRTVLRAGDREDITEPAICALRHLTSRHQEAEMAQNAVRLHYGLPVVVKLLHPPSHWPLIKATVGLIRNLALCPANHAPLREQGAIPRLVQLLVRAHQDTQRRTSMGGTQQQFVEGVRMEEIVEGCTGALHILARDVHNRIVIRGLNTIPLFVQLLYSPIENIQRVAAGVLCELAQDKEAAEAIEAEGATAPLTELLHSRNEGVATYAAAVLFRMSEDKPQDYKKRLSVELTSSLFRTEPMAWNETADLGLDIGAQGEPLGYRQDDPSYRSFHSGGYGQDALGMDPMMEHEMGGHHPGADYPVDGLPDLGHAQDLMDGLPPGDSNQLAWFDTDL

[2] = CHI Log D procedure; type: physicochemical
[3] = fluorescence polarization, read-out: beta-Catenin FP IC50

Row | IC50 [1, 3] [nM] | chromatographic logD ([2]; pH 7.4, CHI Log D) | IC50 ([1]; read-out: bCat FP IC50) [nM] | logD ([2]; pH 7.4) | Structure (SMILES) | IC50 ([1]; read-out: FP EC50) [nM] | CHI Log D ([2]; pH 7.4) | IC50 ([1]; FP EC50 (nM)) [nM] | chromatographic logD ([2]; pH 7.4)
1 | – | – | – | – | CC[C@H](C)[C@@H]1NC(=O)[C@H](CC(=O)O)NC(=O)[C@]2(CC=CCCCC3(CCCC=CCCCCCC[C@@](C)(C(=O)N[C@@H](Cc4ccccc4)C(=O)N[C@@H](Cc4csc5ccccc45)C(=O)N[C@@H](CCC(N)=O)C(N)=O)NC(=O)[C@H](CCC(N)=O)NC(=O)[C@H](Cc4ccccc4)NC(=O)[C@H](C)NC(=O)[C@H](CCCCNC(=O)CN=[N+]=[N-])NC(=O)[C@H](CCC(=O)O)NC(=O)[C@H](CC(=O)O)NC3=O)NC1=O)CCCN2C(C)=O (stereo partly drawn) [I-591, Ac-PL3-Asp-Ile-B5-Asp-Glu-[AzAc]Lys-Ala-Phe-Gln-S8-Phe-BztA-Gln-NH2] | 64 | 2.348 | – | –
2 | – | – | – | – | CC[C@H](C)[C@@H]1NC(=O)[C@H](CC(=O)O)NC(=O)[C@]2(CC=CCCCC3(CCCC=CCCCCCC[C@@](C)(C(=O)N[C@@H](Cc4ccccc4)C(=O)N[C@@H](Cc4csc5ccccc45)C(=O)N[C@@H](CCC(N)=O)C(N)=O)NC(=O)[C@H](CCC(N)=O)NC(=O)[C@H](Cc4ccccc4)NC(=O)[C@H](C)NC(=O)[C@H](CCCCNC(=O)CN=[N+]=[N-])NC(=O)[C@H](CCC(=O)O)NC(=O)[C@H](CC(=O)O)NC3=O)NC1=O)CCCN2C(C)=O (stereo partly drawn) [I-592, Ac-PL3-Asp-Ile-B5-Asp-Glu-[AzAc]Lys-Ala-Phe-Gln-S8-Phe-BztA-Gln-NH2] | 24 | 2.414 | – | –
3 | – | – | – | – | CC[C@H](C)[C@@H]1NC(=O)[C@H](CC(=O)O)NC(=O)[C@]2(CC=CCCCC3(CCCC=CCCCCCC[C@@](C)(C(=O)N[C@@H](Cc4ccccc4)C(=O)N[C@@H](Cc4csc5ccccc45)C(=O)N[C@@H](CCC(N)=O)C(N)=O)NC(=O)[C@H](CCC(N)=O)NC(=O)[C@H](Cc4ccccc4)NC(=O)[C@H](CCCCNC(=O)CN=[N+]=[N-])NC(=O)[C@H](C)NC(=O)[C@H](CCC(=O)O)NC(=O)[C@H](CC(=O)O)NC3=O)NC1=O)CCCN2C(C)=O (stereo partly drawn) [I-593, Ac-PL3-Asp-Ile-B5-Asp-Glu-Ala-[AzAc]Lys-Phe-Gln-S8-Phe-BztA-Gln-NH2] | – | – | 68 | 2.12
4 | – | – | – | – | CC[C@H](C)[C@@H]1NC(=O)[C@H](CC(=O)O)NC(=O)[C@]2(CC=CCCCC3(CCCC=CCCCCCC[C@@](C)(C(=O)N[C@@H](Cc4ccccc4)C(=O)N[C@@H](Cc4csc5ccccc45)C(=O)N[C@@H](CCC(N)=O)C(N)=O)NC(=O)[C@H](CCCCNC(=O)CN=[N+]=[N-])NC(=O)[C@H](Cc4ccccc4)NC(=O)[C@H](C)NC(=O)[C@H](C)NC(=O)[C@H](CCC(=O)O)NC(=O)[C@H](CC(=O)O)NC3=O)NC1=O)CCCN2C(C)=O (stereo partly drawn) [I-594, Ac-PL3-Asp-Ile-B5-Asp-Glu-Ala-Ala-Phe-[AzAc]Lys-S8-Phe-BztA-Gln-NH2] | – | – | 87 | 2.61
5 | – | – | – | – | CC[C@H](C)[C@@H]1NC(=O)[C@H](CC(=O)O)NC(=O)[C@]2(CC=CCCCC3(CCCC=CCCCCCC[C@@](C)(C(=O)N[C@@H](Cc4ccccc4)C(=O)N[C@@H](Cc4csc5ccccc45)C(=O)N[C@@H](CCCCNC(=O)CN=[N+]=[N-])C(N)=O)NC(=O)[C@H](CCC(N)=O)NC(=O)[C@H](Cc4ccccc4)NC(=O)[C@H](C)NC(=O)[C@H](C)NC(=O)[C@H](CCC(=O)O)NC(=O)[C@H](CC(=O)O)NC3=O)NC1=O)CCCN2C(C)=O (stereo partly drawn) [I-595, Ac-PL3-Asp-Ile-B5-Asp-Glu-Ala-Ala-Phe-Gln-S8-Phe-BztA-[AzAc]Lys-NH2] | – | – | 57 | 2.64
6 | – | – | – | – | CC[C@H](C)[C@@H]1NC(=O)[C@H](CC(=O)O)NC(=O)[C@]2(CC=CCCCC3(CCCC=CCCCCCC[C@@](C)(C(=O)N[C@@H](Cc4ccccc4)C(=O)N[C@@H](Cc4csc5ccccc45)C(=O)N[C@@H](CCC(N)=O)C(=O)N[C@@H](CCCCNC(=O)CN=[N+]=[N-])C(N)=O)NC(=O)[C@H](CCC(N)=O)NC(=O)[C@H](Cc4ccccc4)NC(=O)[C@H](C)NC(=O)[C@H](C)NC(=O)[C@H](CCC(=O)O)NC(=O)[C@H](CC(=O)O)NC3=O)NC1=O)CCCN2C(C)=O (stereo partly drawn) [I-596, Ac-PL3-Asp-Ile-B5-Asp-Glu-Ala-Ala-Phe-Gln-S8-Phe-BztA-Gln-[AzAc]Lys-NH2] | 112 | 2.373 | – | –
7 | – | – | – | – | CC[C@H](C)[C@@H]1NC(=O)[C@H](CC(=O)O)NC(=O)[C@]2(CC=CCCCC3(CCCC=CCCCCCC[C@@](C)(C(=O)N[C@@H](Cc4ccccc4)C(=O)N[C@@H](Cc4csc5ccccc45)C(=O)N[C@@H](CCC(N)=O)C(=O)N[C@@H](CCCCNC(=O)CN=[N+]=[N-])C(N)=O)NC(=O)[C@H](CCC(N)=O)NC(=O)[C@H](Cc4ccccc4)NC(=O)[C@H](C)NC(=O)[C@H](C)NC(=O)[C@H](CCC(=O)O)NC(=O)[C@H](CC(=O)O)NC3=O)NC1=O)CCCN2C(C)=O (stereo partly drawn) [I-597, Ac-PL3-Asp-Ile-B5-Asp-Glu-Ala-Ala-Phe-Gln-S8-Phe-BztA-Gln-[AzAc]Lys-NH2] | 76 | 2.39 | – | –
8 | 3150 | 3.15 | – | – | CC[C@H](C)[C@@H]1NC(=O)[C@H](CC(=O)O)NC(=O)[C@]2(CC=CCCCC3(CCCC=CCCCCCC[C@@](C)(C(=O)N[C@@H](Cc4ccccc4)C(=O)N[C@@H](Cc4csc5ccccc45)C(=O)N[C@@H](CCC(N)=O)C(N)=O)NC(=O)[C@H](CCC(N)=O)NC(=O)[C@H](Cc4ccccc4)NC(=O)[C@H](C)NC(=O)[C@H](C)NC(=O)[C@H](CCC(=O)O)NC(=O)[C@H](CC(=O)O)NC3=O)NC1=O)CCCN2C(=O)CCc1ccccn1 (stereo partly drawn) [I-602, 2PyPrpc-PL3-Asp-Ile-B5-Asp-Glu-Ala-Ala-Phe-Gln-S8-Phe-BztA-Gln-NH2] | – | – | – | –
9 | 211 | – | 211 | 2.5 | CC[C@H](C)[C@@H]1NC(=O)[C@H](CC(=O)O)NC(=O)[C@]2(CC=CCCCC3(CCCC=CCCCCCC[C@@](C)(C(=O)N[C@@H](Cc4ccccc4)C(=O)N[C@@H](Cc4csc5ccccc45)C(=O)N[C@@H](CCC(N)=O)C(N)=O)NC(=O)[C@H](CCC(N)=O)NC(=O)[C@H](Cc4ccccc4)NC(=O)[C@H](C)NC(=O)[C@H](C)NC(=O)[C@H](CN(CC)CC(=O)O)NC(=O)[C@H](CC(=O)O)NC3=O)NC1=O)CCCN2C(C)=O (stereo partly drawn) [I-608, Ac-PL3-Asp-Ile-B5-Asp-EtGa-Ala-Ala-Phe-Gln-S8-Phe-BztA-Gln-NH2] | 211 | 2.506 | – | –
10 | 80 | – | 80 | 2.5 | CC[C@H](C)[C@@H]1NC(=O)[C@H](CC(=O)O)NC(=O)[C@]2(CC=CCCCC3(CCCC=CCCCCCC[C@@](C)(C(=O)N[C@@H](Cc4ccccc4)C(=O)N[C@@H](Cc4csc5ccccc45)C(=O)N[C@@H](CCC(N)=O)C(N)=O)NC(=O)[C@H](CCC(N)=O)NC(=O)[C@H](Cc4ccccc4)NC(=O)[C@H](C)NC(=O)[C@H](C)NC(=O)[C@H](CN(CC)CC(=O)O)NC(=O)[C@H](CC(=O)O)NC3=O)NC1=O)CCCN2C(C)=O (stereo partly drawn) [I-609, Ac-PL3-Asp-Ile-B5-Asp-EtGa-Ala-Ala-Phe-Gln-S8-Phe-BztA-Gln-NH2] | 80 | 2.534 | – | –
11 | 54 | – | 54 | 2.6 | CC[C@H](C)[C@@H]1NC(=O)[C@H](CC(=O)O)NC(=O)[C@]2(CC=CCCCC3(CCCC=CCCCCCC[C@@](C)(C(=O)N[C@@H](Cc4ccccc4)C(=O)N[C@@H](Cc4csc5ccccc45)C(=O)N[C@@H](CCC(N)=O)C(N)=O)NC(=O)[C@H](CCC(N)=O)NC(=O)[C@H](Cc4ccccc4)NC(=O)[C@H](C)NC(=O)[C@H](C)NC(=O)[C@H](CN(CC(=O)O)CC(F)(F)F)NC(=O)[C@H](CC(=O)O)NC3=O)NC1=O)CCCN2C(C)=O (stereo partly drawn) [I-610, Ac-PL3-Asp-Ile-B5-Asp-TfeGA-Ala-Ala-Phe-Gln-S8-Phe-BztA-Gln-NH2] | 54 | 2.587 | – | –
12 | 55 | – | 55 | 2.6 | CC[C@H](C)[C@@H]1NC(=O)[C@H](CC(=O)O)NC(=O)[C@]2(CC=CCCCC3(CCCC=CCCCCCC[C@@](C)(C(=O)N[C@@H](Cc4ccccc4)C(=O)N[C@@H](Cc4csc5ccccc45)C(=O)N[C@@H](CCC(N)=O)C(N)=O)NC(=O)[C@H](CCC(N)=O)NC(=O)[C@H](Cc4ccccc4)NC(=O)[C@H](C)NC(=O)[C@H](C)NC(=O)[C@H](CN(CC(=O)O)CC(F)(F)F)NC(=O)[C@H](CC(=O)O)NC3=O)NC1=O)CCCN2C(C)=O (stereo partly drawn) [I-611, Ac-PL3-Asp-Ile-B5-Asp-TfeGA-Ala-Ala-Phe-Gln-S8-Phe-BztA-Gln-NH2] | 55 | 2.595 | – | –
13 | 5000 | 3.15 | – | – | CC[C@H](C)[C@@H]1NC(=O)[C@H](CNS(=O)(=O)C(F)(F)F)NC(=O)[C@]2(CC=CCCCC3(CCCC=CCCCCCC[C@@](C)(C(=O)N[C@@H](Cc4ccccc4)C(=O)N[C@@H](Cc4csc5ccccc45)C(=O)N[C@@H](CCC(N)=O)C(N)=O)NC(=O)[C@H](CCC(N)=O)NC(=O)[C@H](Cc4ccccc4)NC(=O)[C@H](C)NC(=O)[C@H](C)NC(=O)[C@H](CCC(=O)O)NC(=O)[C@H](CC(=O)O)NC3=O)NC1=O)CCCN2C(C)=O (stereo partly drawn) [I-632, Ac-PL3-[Tf]Dap-Ile-B5-Asp-Glu-Ala-Ala-Phe-Gln-S8-Phe-BztA-Gln-NH2] | – | – | – | –
